Experiments:
[1] = DRUGMATRIX: Glutamate, Kainate radioligand binding (ligand: [3H] Kainic acid); assay type: cell membranes, Rattus norvegicus, Wistar, Brain, Membrane; conditions: Not Active = under 50% inhibition at 10 µM
[2] = molecular target: T1, Angiotensin-converting enzyme (Oryctolagus cuniculus, UniProt P12822); assay type: tissue-based, Lung;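 note: enzymatic inhibition of angiotensin-converting enzyme measured with FAPGG as the substrate; in other assays of this panel Not Active means under 50% inhibition at 10 µM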
T1 sequence (P12822 whole entry): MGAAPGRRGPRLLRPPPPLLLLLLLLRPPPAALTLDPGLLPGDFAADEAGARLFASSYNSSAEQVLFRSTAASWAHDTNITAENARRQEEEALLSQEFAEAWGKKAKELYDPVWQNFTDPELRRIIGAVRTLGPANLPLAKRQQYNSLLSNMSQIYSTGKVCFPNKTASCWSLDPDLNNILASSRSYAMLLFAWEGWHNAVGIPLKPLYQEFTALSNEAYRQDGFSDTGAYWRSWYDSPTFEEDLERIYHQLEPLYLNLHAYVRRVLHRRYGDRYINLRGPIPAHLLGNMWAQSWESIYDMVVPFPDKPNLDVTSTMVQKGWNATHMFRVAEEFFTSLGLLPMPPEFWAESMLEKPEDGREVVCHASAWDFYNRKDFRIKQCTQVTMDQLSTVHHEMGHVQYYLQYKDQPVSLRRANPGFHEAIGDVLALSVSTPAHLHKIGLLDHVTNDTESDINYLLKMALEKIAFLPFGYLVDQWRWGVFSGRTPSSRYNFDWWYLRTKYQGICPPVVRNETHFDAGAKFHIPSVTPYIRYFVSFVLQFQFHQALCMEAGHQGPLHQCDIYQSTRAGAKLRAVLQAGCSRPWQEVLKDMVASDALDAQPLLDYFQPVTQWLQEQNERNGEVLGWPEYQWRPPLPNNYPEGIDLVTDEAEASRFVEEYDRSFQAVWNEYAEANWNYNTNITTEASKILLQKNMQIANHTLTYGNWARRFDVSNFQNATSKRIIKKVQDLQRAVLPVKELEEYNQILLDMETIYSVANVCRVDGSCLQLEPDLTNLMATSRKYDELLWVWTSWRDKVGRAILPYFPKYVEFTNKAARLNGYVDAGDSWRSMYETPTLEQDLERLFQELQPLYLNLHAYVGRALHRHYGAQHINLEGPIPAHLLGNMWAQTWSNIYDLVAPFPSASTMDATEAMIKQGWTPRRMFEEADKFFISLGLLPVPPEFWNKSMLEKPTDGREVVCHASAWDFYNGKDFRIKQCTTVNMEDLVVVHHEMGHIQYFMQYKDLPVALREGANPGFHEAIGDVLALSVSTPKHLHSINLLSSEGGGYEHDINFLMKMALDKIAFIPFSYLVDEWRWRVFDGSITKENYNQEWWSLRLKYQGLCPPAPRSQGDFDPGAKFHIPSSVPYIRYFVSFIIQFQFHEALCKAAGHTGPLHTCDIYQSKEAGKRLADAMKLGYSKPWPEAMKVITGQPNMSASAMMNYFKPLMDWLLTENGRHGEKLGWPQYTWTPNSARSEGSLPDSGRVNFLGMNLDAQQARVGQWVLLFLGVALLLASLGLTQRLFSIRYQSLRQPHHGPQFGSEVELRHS

Acetylcholinesterase = Acetylcholinesterase (Homo sapiens, UniProt P22303); experiment: DRUGMATRIX: Acetylcholinesterase enzyme inhibition (substrate: acetylthiocholine); assay type: cell-based, HEK293; conditions: hek293; Not Active = under 50% inhibition at 10 µM
Chain of Acetylcholinesterase (P22303 whole entry): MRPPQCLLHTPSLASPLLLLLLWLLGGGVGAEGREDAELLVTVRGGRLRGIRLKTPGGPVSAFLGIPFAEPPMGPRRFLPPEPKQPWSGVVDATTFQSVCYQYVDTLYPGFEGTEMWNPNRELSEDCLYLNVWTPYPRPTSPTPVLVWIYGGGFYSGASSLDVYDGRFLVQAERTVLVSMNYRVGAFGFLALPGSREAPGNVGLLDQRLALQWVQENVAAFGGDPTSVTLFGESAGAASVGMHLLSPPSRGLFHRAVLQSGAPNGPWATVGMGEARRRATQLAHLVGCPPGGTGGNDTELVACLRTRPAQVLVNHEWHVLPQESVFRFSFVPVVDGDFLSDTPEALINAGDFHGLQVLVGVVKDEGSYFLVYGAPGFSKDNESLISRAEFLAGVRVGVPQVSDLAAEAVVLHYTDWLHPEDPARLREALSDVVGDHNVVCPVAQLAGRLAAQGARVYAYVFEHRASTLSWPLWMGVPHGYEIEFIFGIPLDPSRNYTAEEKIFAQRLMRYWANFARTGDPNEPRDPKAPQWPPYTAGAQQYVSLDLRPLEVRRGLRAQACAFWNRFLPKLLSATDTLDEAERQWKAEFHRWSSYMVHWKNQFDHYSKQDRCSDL

Adenosine receptor A3 = molecular target: T2, Adenosine receptor A3 (Homo sapiens, UniProt P0DMS8); assay type: cell membranes, CHO-K1, Membrane; conditions: cho-k1;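 note: radioligand binding assay with AB-MECA serving as the labeled ligand; in other assays of this panel Not Active means under 50% inhibition at 10 µM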
T2 sequence (P0DMS8 whole entry): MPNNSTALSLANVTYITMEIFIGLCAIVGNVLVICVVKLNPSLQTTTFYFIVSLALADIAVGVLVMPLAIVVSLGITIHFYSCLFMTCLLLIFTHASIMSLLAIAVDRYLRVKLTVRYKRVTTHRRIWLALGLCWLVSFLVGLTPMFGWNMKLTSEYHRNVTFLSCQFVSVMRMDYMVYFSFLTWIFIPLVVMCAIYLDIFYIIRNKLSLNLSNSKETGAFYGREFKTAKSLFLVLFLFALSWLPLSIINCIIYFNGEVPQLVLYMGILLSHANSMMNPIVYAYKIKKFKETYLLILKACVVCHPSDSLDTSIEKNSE

[3] = molecular target: Mitogen-activated protein kinase 14 (Homo sapiens, UniProt Q16539); design: species or system Escherichia coli;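 note: inhibition of p38alpha enzyme activity in a biochemical kinase assay, with myelin basic protein serving as substrate; in other assays of this panel Not Active means under 50% inhibition at 10 µM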
Chain of Mitogen-activated protein kinase 14 (Q16539 whole entry): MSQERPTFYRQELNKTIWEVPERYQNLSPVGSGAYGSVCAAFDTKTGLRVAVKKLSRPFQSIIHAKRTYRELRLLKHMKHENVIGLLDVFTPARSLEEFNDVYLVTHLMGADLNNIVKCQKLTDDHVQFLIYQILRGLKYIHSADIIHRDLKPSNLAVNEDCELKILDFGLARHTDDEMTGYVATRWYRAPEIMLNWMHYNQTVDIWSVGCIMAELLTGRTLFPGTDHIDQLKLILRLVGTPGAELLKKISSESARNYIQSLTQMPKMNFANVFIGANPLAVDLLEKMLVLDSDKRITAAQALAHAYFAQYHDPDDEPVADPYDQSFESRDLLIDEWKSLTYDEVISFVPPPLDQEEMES

[4] = molecular target: T3, Muscarinic acetylcholine receptor M5 (Homo sapiens, UniProt P08912); assay type: cell membranes, CHO-K1, Membrane; conditions: cho-k1; note: in other assays of this panel Not Active means under 50% inhibition at 10 µM
T3 sequence (P08912 whole entry): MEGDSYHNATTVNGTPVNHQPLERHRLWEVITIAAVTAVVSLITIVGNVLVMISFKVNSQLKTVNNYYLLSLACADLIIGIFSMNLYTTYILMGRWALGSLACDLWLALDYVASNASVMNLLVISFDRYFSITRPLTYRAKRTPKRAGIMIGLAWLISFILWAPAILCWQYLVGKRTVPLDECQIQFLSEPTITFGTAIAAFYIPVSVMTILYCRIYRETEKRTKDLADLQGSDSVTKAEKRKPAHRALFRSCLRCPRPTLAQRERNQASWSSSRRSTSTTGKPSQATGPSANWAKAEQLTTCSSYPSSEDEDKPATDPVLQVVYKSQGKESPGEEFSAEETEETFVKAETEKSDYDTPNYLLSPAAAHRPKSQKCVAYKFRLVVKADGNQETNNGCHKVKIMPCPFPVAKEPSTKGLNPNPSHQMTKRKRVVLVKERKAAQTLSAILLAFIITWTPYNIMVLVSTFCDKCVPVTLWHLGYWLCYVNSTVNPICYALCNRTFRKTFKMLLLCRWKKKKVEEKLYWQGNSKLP

C[C@H]1C[C@@H]2[C@H]([C@@H](O)C[C@@]3(C)[C@H]2CC[C@]3(O)C(=O)CO)[C@@]2(C)C=CC(=O)C=C12 [METHYLPREDNISOLONE]
Not Active: IC50 [1] | Ki [1] | IC50 [2] | IC50 (Acetylcholinesterase) | IC50 (Adenosine receptor A3) | IC50 [3] | IC50 [4]

Cc1cccc(C)c1OCC(C)N (centres undefined) [MEXILETINE]
Not Active: IC50 [1] | Ki [1] | IC50 [2] | IC50 (Acetylcholinesterase) | IC50 (Adenosine receptor A3) | IC50 [3] | IC50 [4]

Nc1cc(N2CCCCC2)nc(N)[n+]1[O-] [MINOXIDIL]
Not Active: IC50 [1] | Ki [1] | IC50 [2] | IC50 (Acetylcholinesterase) | IC50 (Adenosine receptor A3) | IC50 [3] | IC50 [4]

CO[C@H]1/C=C/O[C@@]2(C)Oc3c(C)c(O)c4c(O)c(c(/C=N/N5CCN(C6CCCC6)CC5)c(O)c4c3C2=O)NC(=O)/C(C)=C\C=C\[C@H](C)[C@H](O)[C@@H](C)[C@@H](O)[C@@H](C)[C@H](OC(C)=O)[C@@H]1C [RIFAPENTINE]
Not Active: IC50 [1] | Ki [1] | IC50 [2] | IC50 (Acetylcholinesterase) | IC50 (Adenosine receptor A3) | IC50 [3] | IC50 [4]

CCCCOc1cc(CC2CNC(=O)N2)ccc1OC (centres undefined) [RO-201724]
Not Active: IC50 [1] | Ki [1] | IC50 [2] | IC50 (Acetylcholinesterase) | IC50 (Adenosine receptor A3) | IC50 [3] | IC50 [4]

CC[C@@H](C(=O)[C@@H](C)[C@@H](O)[C@H](C)[C@@H]1O[C@@H]([C@@H](CC)C(=O)O)CC[C@@H]1C)[C@H]1O[C@]2(C=C[C@@H](O)[C@]3(CC[C@@](C)([C@H]4CC[C@](O)(CC)[C@H](C)O4)O3)O2)[C@H](C)C[C@@H]1C [SALINOMYCIN]
Not Active: IC50 [1] | Ki [1] | IC50 [2] | IC50 (Acetylcholinesterase) | IC50 (Adenosine receptor A3) | IC50 [3] | IC50 [4]

O=C(Oc1ccccc1C(=O)O)c1ccccc1O [SALSALATE]
Not Active: IC50 [1] | Ki [1] | IC50 [2] | IC50 (Acetylcholinesterase) | IC50 (Adenosine receptor A3) | IC50 [3] | IC50 [4]

O=C(O)c1cn(-c2ccc(F)cc2)c2cc(N3CCNCC3)c(F)cc2c1=O [SARAFLOXACIN]
Not Active: IC50 [1] | Ki [1] | IC50 [2] | IC50 (Acetylcholinesterase) | IC50 (Adenosine receptor A3) | IC50 [3] | IC50 [4]

CC(C)NCC(O)c1ccc(NS(C)(=O)=O)cc1 (centres undefined) [SOTALOL]
Not Active: IC50 [1] | Ki [1] | IC50 [2] | IC50 (Acetylcholinesterase) | IC50 (Adenosine receptor A3) | IC50 [3] | IC50 [4]

O.O.O.O.O.O.[Cl-].[Cl-].[Sr+2] [STRONTIUM CHLORIDE HEXAHYDRATE]
Not Active: IC50 [1] | Ki [1] | IC50 [2] | IC50 (Acetylcholinesterase) | IC50 (Adenosine receptor A3) | IC50 [3] | IC50 [4]

O=C1C(CC[S+]([O-])c2ccccc2)C(=O)N(c2ccccc2)N1c1ccccc1 (centres undefined) [SULFINPYRAZONE]
Not Active: IC50 [1] | Ki [1] | IC50 [2] | IC50 (Acetylcholinesterase) | IC50 (Adenosine receptor A3) | IC50 [3] | IC50 [4]

NC(=O)N1C(=O)/C(=C(\O)c2cccs2)c2cc(Cl)ccc21 [TENIDAP]
Not Active: IC50 [1] | Ki [1] | IC50 [2] | IC50 (Acetylcholinesterase) | IC50 (Adenosine receptor A3) | IC50 [3] | IC50 [4]

COc1cc2nc(N3CCN(C(=O)C4CCCO4)CC3)nc(N)c2cc1OC (centres undefined) [TERAZOSIN]
Not Active: IC50 [1] | Ki [1] | IC50 [2] | IC50 (Acetylcholinesterase) | IC50 (Adenosine receptor A3) | IC50 [3] | IC50 [4]

CN(C/C=C/C#CC(C)(C)C)Cc1cccc2ccccc12 [TERBINAFINE]
Not Active: IC50 [1] | Ki [1] | IC50 [2] | IC50 (Acetylcholinesterase) | IC50 (Adenosine receptor A3) | IC50 [3] | IC50 [4]

CCCCNc1ccc(C(=O)OCCN(C)C)cc1 [TETRACAINE]
Not Active: IC50 [1] | Ki [1] | IC50 [2] | IC50 (Acetylcholinesterase) | IC50 (Adenosine receptor A3) | IC50 [3] | IC50 [4]

Cn1c(=O)c2nc[nH]c2n(C)c1=O.O [THEOPHYLLINE]
Not Active: IC50 [1] | Ki [1] | IC50 [2] | IC50 (Acetylcholinesterase) | IC50 (Adenosine receptor A3) | IC50 [3] | IC50 [4]

CS(=O)(=O)c1ccc([C@@H](O)[C@@H](CO)NC(=O)C(Cl)Cl)cc1 [THIAMPHENICOL]
Not Active: IC50 [1] | Ki [1] | IC50 [2] | IC50 (Acetylcholinesterase) | IC50 (Adenosine receptor A3) | IC50 [3] | IC50 [4]

Reference: ChEMBL document CHEMBL1909046, “DrugMatrix in vitro pharmacology data”
